“And” between values parts separate entries of the source, which are not always exact repeats. Equal values may be shown once. Read-outs that look alike come from different tables or passages of the source.
Assay: TD Phase (Groups 1 and 3): plasma and ocular tissue concentrations and pharmacokinetics of Compound 18 and its metabolite Compound 4 after once daily ocular instillation of Compound 18 nanosuspension for 7 days
Format: in vivo, New Zealand white rabbits
Conditions: for Metabolite/Parent AUC Ratio: MW-corrected AUC of metabolite Compound 4 / parent Compound 18
Source text: This example illustrates the procedures and results for the levels of Compound 18 and its metabolite Compound 4 in plasma and ocular tissues of normotensive rabbits following ocular instillation of Compound 18 once daily for 7 consecutive days.
Twenty five (25) male New Zealand white rabbits were divided into 5 groups of varying amounts of animals per group.
The Test article, Compound 18 was formulated as a 2% nanosuspension in DI water containing 0.2% PS80 (polyoxyethylenesorbitan, monooleate (Tween 80)) and 0.4% HPMC (hydroxypropylmethylcellulose) at pH 6.77. Referred to herein as “Compound 18 nanosuspension.”
The study consisted of three groups (Groups 1-3) of 19 male rabbits (NZW) that underwent once daily morning ocular installation (1 eyedrop) for 7 consecutive days (Day 0-6). Groups 4-5 each consisted of 3 male rabbits (NZW) that were not dosed.
Blood samples (1 mL) were collected from the jugular vein at the intervals set out below for each group. The samples were then inverted several times following collection and held on wet ice until centrifuged. Samples were centrifuged within 60 minutes of collection under refrigeration (set at 5° C. for 10 minutes at 2000 g.
Group 1 (Pilot Study, terminal blood collection): blood was collected from 3 animals at 1 hour post day 7 dose of Compound 18 nanosuspension.
Group 3 (TD Phase, terminal blood collection): blood was collected from 3 animals at 0.5 hour, 3 animals at 2 hours, 3 animals at 4 hours, and 3 animals at 8 hours post day 7 dose of Compound 18 nanosuspension.
(§1) Group 1 (Pilot Study): 3 animals were terminated at 1 hour post Day 7 dose of Compound 18 nanosuspension. Following blood collection and termination, ocular tissues (aqueous humor, vitreous humor, cornea, iris/ciliary body, lens, optic nerve, retina, sclera/choroid, and trabecular meshwork) were collected from each animal and the tissue weights were recorded. Note: sclera and choroid were collected together. Iris and ciliary body were collected together.
as §1, with “3 (TD Phase):” for “1 (Pilot Study):”, “0.5 hour, 3 animals at 2 hours, 3 animals at 4 hours, and 3 animals at 8 hours” for “1 hour”
Plasma and tissue samples from treated animals (Groups 1-3) were analyzed for Compound 18 and its metabolite Compound 4 concentrations by LC-MS/MS.
Pharmacokinetic analysis was conducted using WinNonlin Version 6.2.1 (Pharsight, Mountain View, Calif.), operating as a validated software system. Noncompartmental analysis was conducted using the extravascular administration model for ocular instillation dosing.
The peak plasma and ocular tissue concentration, time to achieve peak plasma and ocular tissue concentration, half-life, and area under the plasma and ocular tissue concentration-time curve (Cmax, Tmax, T1/2, and AUC) were calculated from the TD phase combined with the pilot study mean animal plasma and ocular tissue concentrations for each sampling time/dose group for Compound 18 and its metabolite Compound 4.
BA Assay: Quantitation Range 0.05 to 100 ng/mL for Compound 18, 0.15 to 100 ng/mL for Compound 4.
3. Pipet 50 μL of each type of pre-spiked ocular tissue samples (AH/VH) for QC samples, 50 μL of incurred aqueous humor, and vitreous humor sample (if applicable) into a 96 well plate.
Ocular Tissues Homogenate Preparation: Incurred rabbit ocular tissues were weighed in Genogrinder tubes (plastic tubes with small beads) at the time of removal from the animal and stored frozen (<−70° C.) until analysis. The rabbit incurred ocular tissues were thawed on wet ice. […]

[1] = TD Phase, Group 1, 1 h, individual animals
[2] = TD Phase, Group 3, 0.5 h, individual animals
[3] = TD Phase, Group 3, 2 h, individual animals
[4] = TD Phase, Group 3, 8 h, individual animals
[5] = male, New Zealand white, rabbit, topical or ocular, 0.8 mg/kg/day, aqueous humor, Day 7, from mean concentrations
[6] = male, New Zealand white, rabbit, topical or ocular, 0.8 mg/kg/day, cornea, Day 7, from mean concentrations
[7] = male, New Zealand white, rabbit, topical or ocular, 0.8 mg/kg/day, iris/ciliary body, Day 7, from mean concentrations
[8] = male, New Zealand white, rabbit, topical or ocular, 0.8 mg/kg/day, lens, Day 7, from mean concentrations

## CCCc1nn(C)c2c(=O)[nH]c(-c3cc(S(=O)(=O)N4CC(CCCO)C4)ccc3OCC)nc12 [Compound 4, 5-(2-ethoxy-5-((3-(3-hydroxypropyl)azetidin-1-yl)sulfonyl)phenyl)-1-methyl-3-propyl-1,6-dihydro-7H-pyrazolo[4,3-d]pyrimidin-7-one]
Aqueous Humor, Day 7
  Metabolite/Parent AUC Ratio: 21700
Cornea, Day 7, Compound 18 0.8 mg/kg ocular instillation once daily, Groups 1 and 3
  AUC0-8: 10096 ng·h/g
Cornea, Day 7
  Metabolite/Parent AUC Ratio: 52.7
Iris/Ciliary Body, Day 7, Compound 18 0.8 mg/kg ocular instillation once daily, Groups 1 and 3
  AUC0-8: 1795 ng·h/g
Iris/Ciliary Body, Day 7
  Metabolite/Parent AUC Ratio: 13.1
Lens, Day 7, Compound 18 0.8 mg/kg ocular instillation once daily, Groups 1 and 3
  AUC0-8: 68.7 ng·h/g
Optic Nerve, Day 7, Compound 18 0.8 mg/kg ocular instillation once daily, Groups 1 and 3
  AUC0-8: 159 ng·h/g
Plasma, Day 7
  Metabolite/Parent AUC Ratio: 6.72
Retina, Day 7, Compound 18 0.8 mg/kg ocular instillation once daily, Groups 1 and 3
  AUC0-8: 213 ng·h/g
Sclera/Choroid, Day 7, Compound 18 0.8 mg/kg ocular instillation once daily, Groups 1 and 3
  AUC0-8: 1494 ng·h/g
[1]
  Compound 4 Plasma Conc.: 0.412 ng/mL and 1.14 ng/mL and 0.839 ng/mL
  Final Compound 4 Sclera/Choroid Conc.: 171 ng/g and 240 ng/g
TD Phase, Group 1, 1 h, individual animals, BQL set to 0
  Final Compound 4 Retina Conc.: 25.6 ng/g and 90.7 ng/g and 34.8 ng/g
TD Phase, Group 1, 1 h, individual animals, homogenate dilution factor 8
  Compound 4 Sclera/Choroid Homogenate Conc.: 21.4 ng/mL and 30.0 ng/mL
[2]
  Compound 4 Plasma Conc.: 1.03 ng/mL and 0.812 ng/mL
  Final Compound 4 Sclera/Choroid Conc.: 154 ng/g and 142 ng/g and 331 ng/g
TD Phase, Group 3, 0.5 h, individual animals, homogenate dilution factor 8
  Compound 4 Sclera/Choroid Homogenate Conc.: 19.3 ng/mL and 17.7 ng/mL and 41.4 ng/mL
[3]
  Compound 4 Plasma Conc.: BQL (BQL = Below lower limit of quantitation (0.0500 ng/mL for Compound 18 and 0.150 ng/mL for Compound 4))
  Final Compound 4 Sclera/Choroid Conc.: 121 ng/g and 234 ng/g and 88.0 ng/g
TD Phase, Group 3, 2 h, individual animals, BQL set to 0
  Final Compound 4 Retina Conc.: 118 ng/g and 23.4 ng/g and 11.4 ng/g
TD Phase, Group 3, 2 h, individual animals, homogenate dilution factor 8
  Compound 4 Sclera/Choroid Homogenate Conc.: 15.1 ng/mL and 29.2 ng/mL and 11.0 ng/mL
TD Phase, Group 3, 2 h, individual animals, homogenate dilution factor 20 (164 for animal 207671)
  Compound 4 Retina Homogenate Conc.: 0.719 ng/mL and 1.17 ng/mL and 0.568 ng/mL
TD Phase, Group 3, 4 h, individual animals
  Compound 4 Plasma Conc.: BQL (BQL = Below lower limit of quantitation (0.0500 ng/mL for Compound 18 and 0.150 ng/mL for Compound 4))
TD Phase, Group 3, 4 h, individual animals, BQL set to 0
  Final Compound 4 Retina Conc.: 16.7 ng/g and 34.6 ng/g and 14.0 ng/g
TD Phase, Group 3, 4 h, individual animals, homogenate dilution factor 20
  Compound 4 Retina Homogenate Conc.: 0.835 ng/mL and 1.73 ng/mL and 0.702 ng/mL
TD Phase, Group 3, 8 h, Mean, BQL set to 0
  Compound 4 Plasma Conc.: BQL (BQL = Below lower limit of quantitation (0.0500 ng/mL for Compound 18 and 0.150 ng/mL for Compound 4))
[4]
  Compound 4 Plasma Conc.: BQL (BQL = Below lower limit of quantitation (0.0500 ng/mL for Compound 18 and 0.150 ng/mL for Compound 4))
  Compound 4 Vitreous Humor Conc.: BQL (BQL = Below lower limit of quantitation (0.0500 ng/mL for Compound 18 and 0.150 ng/mL for Compound 4))
TD Phase, Group 3, 8 h, individual animals, BQL set to 0
  Final Compound 4 Retina Conc.: 8.90 ng/g and 0 ng/g and 8.34 ng/g
TD Phase, Group 3, 8 h, individual animals, homogenate dilution factor 20
  Compound 4 Retina Homogenate Conc.: BQL^a (BQL = Below lower limit of quantitation (0.0500 ng/mL for Compound 18 and 0.150 ng/mL for Compound 4)) and 0.417 ng/mL
TD phase plasma and ocular tissues
  tissue of highest concentration: highest in cornea
Trabecular Meshwork, Day 7, Compound 18 0.8 mg/kg ocular instillation once daily, Groups 1 and 3
  AUC0-8: 533 ng·h/g
Vitreous Humor, Day 7
  Metabolite/Parent AUC Ratio: 447
cornea, Day 7, from mean concentrations
  AUC0-8: 10096 ng·h/g
iris/ciliary body, Day 7, from mean concentrations
  AUC0-8: 1795 ng·h/g
lens, Day 7, from mean concentrations
  AUC0-8: 68.7 ng·h/g
lens, TD phase
  Metabolite/parent AUC ratio (Compound 4 vs Compound 18): 63.0
male, New Zealand white, rabbit, plasma, other: ocular instillation, 0.8 mg/kg/day, TD Phase, Group 3, 0.5 h, Mean, BQL set to 0, read-out: Compound 4 Plasma Conc.
  concentration at 0.5 h: 1.02 ng/mL
male, New Zealand white, rabbit, plasma, other: ocular instillation, 0.8 mg/kg/day, TD Phase, Group 3, 0.5 h, individual animals, read-out: Compound 4 Plasma Conc.
  concentration at 0.5 h: 1.22 ng/mL
male, New Zealand white, rabbit, retina homogenate, other: ocular instillation (eye drop), 0.798 mg/kg/day, TD Phase, Group 3, 8 h, individual animals, homogenate dilution factor 20, read-out: Compound 4 Retina Homogenate Conc.
  concentration at 8 h: 0.445 ng/mL
male, New Zealand white, rabbit, retina, other: ocular instillation (eye drop), 0.798 mg/kg/day, TD Phase, Group 1, 1 h, Mean, read-out: Final Compound 4 Retina Conc.
  concentration at 1 h: 50.2 ng/g
male, New Zealand white, rabbit, retina, other: ocular instillation (eye drop), 0.798 mg/kg/day, TD Phase, Group 3, 2 h, Mean, read-out: Final Compound 4 Retina Conc.
  concentration at 2 h: 50.9 ng/g
male, New Zealand white, rabbit, retina, other: ocular instillation (eye drop), 0.798 mg/kg/day, TD Phase, Group 3, 4 h, Mean, read-out: Final Compound 4 Retina Conc.
  concentration at 4 h: 21.8 ng/g
male, New Zealand white, rabbit, retina, other: ocular instillation (eye drop), 0.798 mg/kg/day, TD Phase, Group 3, 8 h, Mean, read-out: Final Compound 4 Retina Conc.
  concentration at 8 h: 5.75 ng/g
male, New Zealand white, rabbit, sclera/choroid homogenate, other: ocular instillation (eye drop), 0.798 mg/kg/day, TD Phase, Group 1, 1 h, individual animals, homogenate dilution factor 8, read-out: Compound 4 Sclera/Choroid Homogenate Conc.
  concentration at 1 h: 17 ng/mL
male, New Zealand white, rabbit, sclera/choroid, other: ocular instillation (eye drop), 0.798 mg/kg/day, TD Phase, Group 1, 1 h, Mean, read-out: Final Compound 4 Sclera/Choroid Conc.
  concentration at 1 h: 182 ng/g
male, New Zealand white, rabbit, sclera/choroid, other: ocular instillation (eye drop), 0.798 mg/kg/day, TD Phase, Group 1, 1 h, individual animals, read-out: Final Compound 4 Sclera/Choroid Conc.
  concentration at 1 h: 136 ng/g
male, New Zealand white, rabbit, sclera/choroid, other: ocular instillation (eye drop), 0.798 mg/kg/day, TD Phase, Group 3, 0.5 h, Mean, read-out: Final Compound 4 Sclera/Choroid Conc.
  concentration at 0.5 h: 209 ng/g
male, New Zealand white, rabbit, sclera/choroid, other: ocular instillation (eye drop), 0.798 mg/kg/day, TD Phase, Group 3, 2 h, Mean, read-out: Final Compound 4 Sclera/Choroid Conc.
  concentration at 2 h: 148 ng/g
[5]
  Cmax: 124 ng/mL
  Tmax: 1 h
  half-life: 1.95 h
male, New Zealand white, rabbit, topical or ocular, 0.8 mg/kg/day, aqueous humor, Day 7, from mean concentrations, read-out: AUC0-8
  AUC(0-t): 314 ng·h/mL
[6]
  Cmax: 3600 ng/g
  Tmax: 1 h
  half-life: 2.63 h
[7]
  Cmax: 980 ng/g
  Tmax: 1 h
  half-life: 2.11 h
[8]
  Cmax: 18.1 ng/g
  Tmax: 1 h
  half-life: 2.25 h

From patent US20220153746A1, “NITROGEN OXIDE-DONATING PDE-5 AND/OR PDE-6 INHIBITOR COMPOUNDS, AND USES THEREOF” (ILDONG PHARMACEUTICAL CO., LTD., priority 2020, published 2022)
